Test results reported in patent US20110082130A1 (LIGAND PHARMACEUTICALS, INC., priority 2006, published 2011).

target: T1, chimeric human H3 receptor (Homo sapiens, UniProt Q9Y5N1); assay: Chimeric human H3 receptor GTP binding assay (agonist-stimulated GTP-gamma35S binding, Example 7); format: biochemical; details: Table II "Ki", symbol *; assay of Example 7
T1 construct: made in house; host or cells: Sf9 insect cells (baculovirus); P2 membrane preparation
Method in brief: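 Sf9 membranes co-expressing chimeric human H3 receptor and heterotrimeric G-protein, 35 μg/tube, in pH 7.4 Tris buffer with 10 μM GDP. Test compounds (10^−10–10^−6 M) competed against 1 μM histamine, […] GTP-gamma35S, 60 min at room temperature. Filter-bound radioactivity counted; IC50 converted to Ki by Cheng-Prusoff. Agonism/inverse agonism tested without histamine (EC50).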

T1 sequence (Q9Y5N1 with tags, fused parts or gaps): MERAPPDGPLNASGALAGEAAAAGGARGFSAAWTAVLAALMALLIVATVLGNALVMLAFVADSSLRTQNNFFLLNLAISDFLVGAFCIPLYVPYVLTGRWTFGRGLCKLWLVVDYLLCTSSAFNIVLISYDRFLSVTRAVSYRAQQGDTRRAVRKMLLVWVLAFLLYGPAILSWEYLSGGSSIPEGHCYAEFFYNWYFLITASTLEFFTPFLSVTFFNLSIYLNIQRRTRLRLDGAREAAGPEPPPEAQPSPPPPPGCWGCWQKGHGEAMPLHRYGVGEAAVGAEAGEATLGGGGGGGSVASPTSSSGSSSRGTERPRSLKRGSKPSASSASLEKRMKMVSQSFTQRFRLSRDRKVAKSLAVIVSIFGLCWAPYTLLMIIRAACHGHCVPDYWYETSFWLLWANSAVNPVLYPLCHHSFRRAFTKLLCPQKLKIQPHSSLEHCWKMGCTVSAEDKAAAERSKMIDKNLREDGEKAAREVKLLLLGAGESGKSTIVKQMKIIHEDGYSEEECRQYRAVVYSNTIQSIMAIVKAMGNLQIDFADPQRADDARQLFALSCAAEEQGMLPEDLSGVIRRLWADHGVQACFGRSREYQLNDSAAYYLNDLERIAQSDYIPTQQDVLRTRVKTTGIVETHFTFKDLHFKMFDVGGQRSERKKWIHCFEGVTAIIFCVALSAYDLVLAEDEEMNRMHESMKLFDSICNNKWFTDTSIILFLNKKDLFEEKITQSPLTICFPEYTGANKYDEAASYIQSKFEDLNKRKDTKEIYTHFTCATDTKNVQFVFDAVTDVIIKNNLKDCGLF

Compound | Ki
COc1cc(-c2ccc3c(c2)CCN(CC(=O)N2CCN(C4CCCC4)CC2)C3)cc(OC)c1OC [Compound 517, 2-[2-(4-cyclopentylpiperazin-1-yl)-2-oxoethyl]-6-(3,4,5-trimethoxyphenyl)-1,2,3,4-tetrahydroisoquinoline] | < 1000 nM
COc1ccc(-c2ccc3c(c2)CCN(CC(=O)N2CCN(C4CCC4)CC2)C3)cc1 [Compound 520, 2-[2-(4-cyclobutylpiperazin-1-yl)-2-oxoethyl]-6-(4-methoxyphenyl)-1,2,3,4-tetrahydroisoquinoline] | < 1000 nM
COc1ccc(-c2ccc3c(c2)CCN(CC(=O)N2CCN(C(C)C)CC2)C3)cc1OC [Compound 527, 6-(3,4-dimethoxyphenyl)-2-[2-(4-isopropylpiperazin-1-yl)-2-oxoethyl]-1,2,3,4-tetrahydroisoquinoline] | < 1000 nM
CCOc1ccc(-c2ccc3c(c2)CCN(CC(=O)N2CCN(C4CCC4)CC2)C3)cc1 [Compound 528, 2-[2-(4-cyclobutylpiperazin-1-yl)-2-oxoethyl]-6-(4-ethoxyphenyl)-1,2,3,4-tetrahydroisoquinoline] | < 1000 nM
CN(C)c1cccc(-c2ccc3c(c2)CCN(CC(=O)N2CCN(C4CCC4)CC2)C3)c1 [Compound 536, 3-{2-[2-(4-cyclobutylpiperazin-1-yl)-2-oxoethyl]-1,2,3,4-tetrahydroisoquinolin-6-yl}-N,N-dimethylaniline] | < 1000 nM
COc1ccc(-c2ccc3c(c2)CCN(CC(=O)N2CCN(C4CCC4)CC2)C3)cc1C [Compound 540, 2-[2-(4-cyclobutylpiperazin-1-yl)-2-oxoethyl]-6-(4-methoxy-3-methylphenyl)-1,2,3,4-tetrahydroisoquinoline] | < 1000 nM
COc1ccc(-c2ccc3c(c2)CCN(CC(=O)N2CCN(C4CCCC4)CC2)C3)cc1C [Compound 541, 2-[2-(4-cyclopentylpiperazin-1-yl)-2-oxoethyl]-6-(4-methoxy-3-methylphenyl)-1,2,3,4-tetrahydroisoquinoline] | < 1000 nM
CCCOc1ccc(-c2ccc3c(c2)CCN(CC(=O)N2CCN(C4CCCC4)CC2)C3)cc1 [Compound 545, 2-[2-(4-cyclopentylpiperazin-1-yl)-2-oxoethyl]-6-(4-propoxyphenyl)-1,2,3,4-tetrahydroisoquinoline] | < 1000 nM
C[C@H]1CN(C(=O)CN2CCc3cc(-c4cncnc4)ccc3C2)CCN1C1CCCC1 [Compound 610, 2-{2-[(3S)-4-cyclopentyl-3-methylpiperazin-1-yl]-2-oxoethyl}-6-pyrimidin-5-yl-1,2,3,4-tetrahydroisoquinoline] | < 1000 nM
C[C@@H]1CN(C(=O)CN2CCc3cc(-c4cncnc4)ccc3C2)CCN1C1CCCC1 [Compound 611, 2-{2-[(3R)-4-cyclopentyl-3-methylpiperazin-1-yl]-2-oxoethyl}-6-pyrimidin-5-yl-1,2,3,4-tetrahydroisoquinoline] | < 1000 nM
C[C@@H]1CN(C(=O)CN2CCc3cc(-c4cncnc4)ccc3C2)CCN1C1CCCCC1 [Compound 617, 2-{2-[(3R)-4-cyclohexyl-3-methylpiperazin-1-yl]-2-oxoethyl}-6-pyrimidin-5-yl-1,2,3,4-tetrahydroisoquinoline] | < 1000 nM
C[C@H]1CN(C(=O)CN2CCc3cc(-c4cncnc4)ccc3C2)CCN1C1C[C@H]2CC[C@@H]1C2 (stereo partly drawn) [Compound 624, 2-(2-{(3S)-4-[(1R,4S)-bicyclo[2.2.1]hept-2-yl]-3-methylpiperazin-1-yl}-2-oxoethyl)-6-pyrimidin-5-yl-1,2,3,4-tetrahydroisoquinoline] | < 1000 nM
CCN(CC)c1ccc(-c2ccc3c(c2)CCN(CC(=O)N2CCN(C4CCC4)CC2)C3)cc1 [Compound 625, 4-{2-[2-(4-cyclobutylpiperazin-1-yl)-2-oxoethyl]-1,2,3,4-tetrahydroisoquinolin-6-yl}-N,N-diethylaniline] | < 1000 nM
Cc1cccc(-c2ccc3c(c2)CCN(CC(=O)N2CCN(C4CCC4)CC2)C3)n1 [Compound 628, 2-[2-(4-cyclobutylpiperazin-1-yl)-2-oxoethyl]-6-(6-methylpyridin-2-yl)-1,2,3,4-tetrahydroisoquinoline] | < 1000 nM
Cc1ccnc(-c2ccc3c(c2)CCN(CC(=O)N2CCN(C4CCC4)CC2)C3)c1 [Compound 630, 2-[2-(4-cyclobutylpiperazin-1-yl)-2-oxoethyl]-6-(4-methylpyridin-2-yl)-1,2,3,4-tetrahydroisoquinoline] | < 1000 nM
O=C(CN1CCc2cc(-c3ccc(Cl)cn3)ccc2C1)N1CCN(C2CCC2)CC1 [Compound 631, 6-(5-chloropyridin-2-yl)-2-[2-(4-cyclobutylpiperazin-1-yl)-2-oxoethyl]-1,2,3,4-tetrahydroisoquinoline] | < 1000 nM

Continued, values first:

Ki | Compound
< 1000 nM | COc1ccc(-c2ccc3c(c2)CCN(CC(=O)N2CCN(C4CCCC4)CC2)C3)cc1 [Compound 521, 2-[2-(4-cyclopentylpiperazin-1-yl)-2-oxoethyl]-6-(4-methoxyphenyl)-1,2,3,4-tetrahydroisoquinoline]
< 1000 nM | COc1ccc(-c2ccc3c(c2)CCN(CC(=O)N2CCN(C4CCC4)CC2)C3)cc1OC [Compound 524, 2-[2-(4-cyclobutylpiperazin-1-yl)-2-oxoethyl]-6-(3,4-dimethoxyphenyl)-1,2,3,4-tetrahydroisoquinoline]
< 1000 nM | COc1ccc(-c2ccc3c(c2)CCN(CC(=O)N2CCN(C4CCCC4)CC2)C3)cc1OC [Compound 525, 2-[2-(4-cyclopentylpiperazin-1-yl)-2-oxoethyl]-6-(3.4-dimethoxyphenyl)-1,2,3,4-tetrahydroisoquinoline]
< 1000 nM | COc1ccc(-c2ccc3c(c2)CCN(CC(=O)N2CCN(C4CCCCC4)CC2)C3)cc1OC [Compound 526, 2-[2-(4-cyclohexylpiperazin-1-yl)-2-oxoethyl]-6-(3,4-dimethoxyphenyl)-1,2,3,4-tetrahydroisoquinoline]
< 1000 nM | CCOc1ccc(-c2ccc3c(c2)CCN(CC(=O)N2CCN(C4CCCC4)CC2)C3)cc1 [Compound 529, 2-[2-(4-cyclopentylpiperazin-1-yl)-2-oxoethyl]-6-(4-ethoxyphenyl)-1,2,3,4-tetrahydroisoquinoline]
< 1000 nM | CN(C)c1ccc(-c2ccc3c(c2)CCN(CC(=O)N2CCN(C4CCC4)CC2)C3)cc1 [Compound 532, 4-{2-[2-(4-cyclobutylpiperazin-1-yl)-2-oxoethyl]-1,2,3,4-tetrahydroisoquinolin-6-yl}-N,N-dimethylaniline]
< 1000 nM | CN(C)c1ccc(-c2ccc3c(c2)CCN(CC(=O)N2CCN(C4CCCC4)CC2)C3)cc1 [Compound 533, 4-{2-[2-(4-cyclopentylpiperazin-1-yl)-2-oxoethyl]-1,2,3,4-tetrahydroisoquinolin-6-yl}-N,N-dimethylaniline]
< 1000 nM | CCCOc1ccc(-c2ccc3c(c2)CCN(CC(=O)N2CCN(C4CCC4)CC2)C3)cc1 [Compound 544, 2-[2-(4-cyclobutylpiperazin-1-yl)-2-oxoethyl]-6-(4-propoxyphenyl)-1,2,3,4-tetrahydroisoquinoline]
< 1000 nM | CC1CCCC1N1CCN(C(=O)CN2CCc3cc(-c4cncnc4)ccc3C2)CC1 (stereo not shown) [Compound 613, 2-{2-[4-(2-methylcyclopentyl)piperazin-1-yl]-2-oxoethyl}-6-pyrimidin-5-yl-1,2,3,4-tetrahydroisoquinoline]
< 1000 nM | CC1CCCC1N1CCN(C(=O)CN2CCc3cc(-c4cncnc4)ccc3C2)C[C@@H]1C (stereo partly drawn) [Compound 614, 2-{2-[(3S)-3-methyl-4-(2-methylcyclopentyl)piperazin-1-yl]-2-oxoethyl}-6-pyrimidin-5-yl-1,2,3,4-tetrahydroisoquinoline]
< 1000 nM | C[C@H]1CN(C(=O)CN2CCc3cc(-c4cncnc4)ccc3C2)CCN1C1CCCCC1 [Compound 616, 2-{2-[(3S)-4-cyclohexyl-3-methylpiperazin-1-yl]-2-oxoethyl}-6-pyrimidin-5-yl-1,2,3,4-tetrahydroisoquinoline]
< 1000 nM | CC1CCCCC1N1CCN(C(=O)CN2CCc3cc(-c4cncnc4)ccc3C2)CC1 (stereo not shown) [Compound 619, 2-{2-[4-(2-methylcyclohexyl)piperazin-1-yl]-2-oxoethyl}-6-pyrimidin-5-yl-1,2,3,4-tetrahydroisoquinoline]
< 1000 nM | N#Cc1ccccc1-c1ccc2c(c1)CCN(CC(=O)N1CCN(C3CCC3)CC1)C2 [Compound 627, 2-{2-[2-(4-cyclobutylpiperazin-1-yl)-2-oxoethyl]-1,2,3,4-tetrahydroisoquinolin-6-yl}benzonitrile]
< 1000 nM | Cc1ccc(-c2ccc3c(c2)CCN(CC(=O)N2CCN(C4CCC4)CC2)C3)nc1 [Compound 629, 2-[2-(4-cyclobutylpiperazin-1-yl)-2-oxoethyl]-6-(5-methylpyridin-2-yl)-1,2,3,4-tetrahydroisoquinoline]
< 1000 nM | O=C(CN1CCc2cc(-c3ccc(C(F)(F)F)cn3)ccc2C1)N1CCN(C2CCC2)CC1 [Compound 632, 2-[2-(4-cyclobutylpiperazin-1-yl)-2-oxoethyl]-6-[5-(trifluoromethyl)pyridin-2-yl]-1,2,3,4-tetrahydroisoquinoline]
< 1000 nM | COc1cccc(-c2ccc3c(c2)CCN(CC(=O)N2CCN(C4CCC4)CC2)C3)n1 [Compound 633, 2-[2-(4-cyclobutylpiperazin-1-yl)-2-oxoethyl]-6-(6-methoxypyridin-2-yl)-1,2,3,4-tetrahydroisoquinoline]
< 1000 nM | O=C(CN1CCc2cc(-c3ccc4ccccc4n3)ccc2C1)N1CCN(C2CCC2)CC1 [Compound 634, 2-{2-[2-(4-cyclobutylpiperazin-1-yl)-2-oxoethyl]-1,2,3,4-tetrahydroisoquinolin-6-yl}quinoline]
< 1000 nM | COc1cc(-c2ccc3c(c2)CCN(CC(=O)N2CCN(C4CCC4)CC2)C3)nc(OC)n1 [Compound 635, 2-[2-(4-cyclobutylpiperazin-1-yl)-2-oxoethyl]-6-(2,6-dimethoxypyrimidin-4-yl)-1,2,3,4-tetrahydroisoquinoline]
